Measured values reported in patent US7049321B2, “Methods and pharmaceutical compositions for treatment of central and peripheral nervous system disorders and compounds useful therefor” (Israel Institute for Biological Research, priority 2002, dated 2006).
Entries after “also recorded” stand apart in the source; their conditions may differ. Read-outs that look alike come from different tables or passages of the source.

Tests used:
ApoE = ApoE synthesis and secretion in primary type 1 astrocytes; format: cell-based, rat
Method: Primary cultures of type 1 astrocytes were derived from the cortex of Sprague Dawley rats. The compounds tested were dissolved in the culture media and added to cells for 24, 48, 72 and 96 hrs. Media was then removed and kept frozen until ApoE protein levels were evaluated by immunoblot analysis as described in Poirier et al Neuroscience 55: 81–90 (1993). Alternatively the methods of Cedazo-Minuez et al [Neurosci 105: 651–661, 2001} may be employed.

[1] = mouse, in vivo
Method: (§3) This calculation was based on the brain weight (2 gr) vs. total plasma volume (14 ml).

[2] = system: Primary mixed rat cortical neurons infected with recombinant Semliki Forest virus encoding human APP695 or APP C99 or C111; assay: Aβ levels in vitro in infected cortical neurons; format: cell-based
Method: The mechanism of Aβ modulation was tested using C99 (and C111) that are truncated constructs generated from APP. Unlike APP, C99/C111 are direct substrates for γ-secretase. With both constructs it is possible to directly assay for γ-secretase activity, while with APP this is not possible. Both constructs are—as compared to APP—inefficient substrates for α-secretase. Synergistc effects were also evaluated with CDX (methyl-β-cyclodextrin), an agent which extracts cholesterol from the plasma membrane. CDX inhibits also Aβ production. CDX-treated cells were treated in addition to the respective muscarinic agonist for 5 min to reduce the cholesterol content.

[3] = Chronic toxicity up to 13 weeks, rat; format: in vivo, Wistar rat
[4] = rat, in vivo, po
Method: as §3

[5] = system: Opiods/Opiate, Non-Selective; assay: Opiate non-selective binding; conditions: at 10^−4 M
muscarinic receptor = assay: [3H]OXO-M competition binding; conditions: rat cortex
Text: The ability of a test compound to displace [^3H]OXO-M binding provides a measure for the affinity of the test compound to the receptor agonist binding site.

rat hippocampal neurons = assay: Survival, morphology and apoptosis of hippocampal neurons exposed to Aβ; format: cell-based
Method: (§1) This study was performed in rat hippocampal primary cell cultures using the methods described by Garrido J L et al. (FASEB J 2002; 16:1982).

AF64A-injected rats = assay: Morris water maze in AF64A-injected rats; format: in vivo, Sprague-Dawley rats
Method: AF64A or saline-injected (6 months old) Sprague-Dawley rats were tested in the Morris Water Maze (MWM) task. The paradigm used assesses spatial learning abilities in a reference memory regimen, and involves training (days 1–4), transfer test (Probe trial—day 4, 3 min following the last training trial) and reversal test (day 5).
Drugs and PBS were administered once a day for 5 days before starting the behavioral testing, and then for the duration of the 5-day experiment, 30 min before testing.
The three measures, escape latency, path length and swimming speed were analyzed by MANOVA, followed by simple main effects contrast analysis.

cholesterol-fed rabbits = assay: Aβ immunoreactivity in cortex of hypercholesterolemic rabbits; format: in vivo, New Zealand white rabbits; conditions: 1 mg/kg, s.c., 10 weeks
Text: New Zealand white male rabbits were allowed food and water ad libitum. Animals were fed either standard chow or chow supplemented with 2% cholesterol by weight (Purina) for 10 weeks. […] Following 10 weeks of treatment animals were sacrificed and evaluated for Aβ immunohistochemistry, when all sections were stained simultaneously.

cyclin D1 = assay: Cyclin D1 expression in rat hippocampal neurons; format: cell-based; conditions: against Aβ (5 μM)-induced decrease
Method: as §1

in vivo = conditions: rat
Method: as §3

CYP2C19 = CYP2C19 (Homo sapiens, UniProt P33261); assay: Cytochrome P450 inhibition, CYP2C19; format: in vitro ADME; conditions: up to 10 μM
Method: (§2) Cytochrome P450 activity can be an indicator for potential drug-drug interactions. AF292 was evaluated in a microtiter plate assay for P450 inhibition.

M3 (human) [6] = target: T1, M3 (human) (Homo sapiens, UniProt P20309); assay: PI hydrolysis in cells transfected with human M3; format: cell-based; parameters: expressed in transfected cells
M3 (human) [7] = target: T1, M3 (human); assay: Binding study, M3 (human); conditions: 10 μm
human M1 = target: T2, human M1 (Homo sapiens, UniProt P11229); assay: Binding study, M1 (human); conditions: 10 μm
T2 sequence (P11229 1-460): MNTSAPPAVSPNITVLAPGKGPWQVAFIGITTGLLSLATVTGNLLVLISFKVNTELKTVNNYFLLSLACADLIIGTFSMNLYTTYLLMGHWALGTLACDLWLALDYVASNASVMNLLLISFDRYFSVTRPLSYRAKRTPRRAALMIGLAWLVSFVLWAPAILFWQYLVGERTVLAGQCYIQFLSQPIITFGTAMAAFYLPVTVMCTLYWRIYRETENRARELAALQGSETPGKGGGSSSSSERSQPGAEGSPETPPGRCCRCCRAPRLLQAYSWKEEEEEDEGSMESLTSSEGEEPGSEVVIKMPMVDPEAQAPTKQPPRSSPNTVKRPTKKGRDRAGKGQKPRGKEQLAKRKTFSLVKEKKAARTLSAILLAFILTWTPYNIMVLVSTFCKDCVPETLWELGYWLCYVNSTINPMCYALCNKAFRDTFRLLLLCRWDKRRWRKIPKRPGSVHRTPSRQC

M3 mAChR = target: T3, M3 mAChR (Homo sapiens, UniProt P20309); assay: Arachidonic acid (AA) release, M3; format: cell-based
T3 construct: expressed in transfected cells

CPY2D6 = CPY2D6 (Homo sapiens, UniProt P10635); assay: Cytochrome P450 inhibition, CYP2D6; format: in vitro ADME; conditions: up to 10 μM
Method: as §2

CYP1A2 = CYP1A2 (Homo sapiens, UniProt P05177); assay: Cytochrome P450 inhibition, CYP1A2; format: in vitro ADME; conditions: up to 10 μM
Method: as §2

M5 receptor = target: T4, M5 receptor (Homo sapiens, UniProt P08912); assay: PI hydrolysis in cells transfected with human M5; format: cell-based
T4 construct: expressed in transfected cells

trihexyphenidyl rats = assay: Passive avoidance in trihexyphenidyl-treated rats; format: in vivo, Wistar rats; conditions: 0.03 mg/kg, po, 72 hrs delay; DDW 93.1±29.0

T1 sequence (P20309 whole entry): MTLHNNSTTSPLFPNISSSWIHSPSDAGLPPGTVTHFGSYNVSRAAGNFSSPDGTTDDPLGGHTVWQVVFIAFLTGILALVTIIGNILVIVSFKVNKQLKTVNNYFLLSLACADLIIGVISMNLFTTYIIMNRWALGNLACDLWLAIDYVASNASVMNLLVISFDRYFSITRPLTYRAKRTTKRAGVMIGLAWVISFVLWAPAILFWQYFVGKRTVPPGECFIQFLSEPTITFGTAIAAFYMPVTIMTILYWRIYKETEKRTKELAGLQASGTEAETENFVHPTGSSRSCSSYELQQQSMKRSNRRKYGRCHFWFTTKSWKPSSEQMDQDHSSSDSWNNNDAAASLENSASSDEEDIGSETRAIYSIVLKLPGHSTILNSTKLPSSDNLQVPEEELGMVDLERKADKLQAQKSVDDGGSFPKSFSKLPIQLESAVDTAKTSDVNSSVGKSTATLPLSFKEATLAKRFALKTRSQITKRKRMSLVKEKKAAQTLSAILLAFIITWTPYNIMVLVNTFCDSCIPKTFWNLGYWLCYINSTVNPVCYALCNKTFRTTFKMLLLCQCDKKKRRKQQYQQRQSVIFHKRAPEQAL
T3 sequence (P20309 whole entry): as above
T4 sequence (P08912 whole entry): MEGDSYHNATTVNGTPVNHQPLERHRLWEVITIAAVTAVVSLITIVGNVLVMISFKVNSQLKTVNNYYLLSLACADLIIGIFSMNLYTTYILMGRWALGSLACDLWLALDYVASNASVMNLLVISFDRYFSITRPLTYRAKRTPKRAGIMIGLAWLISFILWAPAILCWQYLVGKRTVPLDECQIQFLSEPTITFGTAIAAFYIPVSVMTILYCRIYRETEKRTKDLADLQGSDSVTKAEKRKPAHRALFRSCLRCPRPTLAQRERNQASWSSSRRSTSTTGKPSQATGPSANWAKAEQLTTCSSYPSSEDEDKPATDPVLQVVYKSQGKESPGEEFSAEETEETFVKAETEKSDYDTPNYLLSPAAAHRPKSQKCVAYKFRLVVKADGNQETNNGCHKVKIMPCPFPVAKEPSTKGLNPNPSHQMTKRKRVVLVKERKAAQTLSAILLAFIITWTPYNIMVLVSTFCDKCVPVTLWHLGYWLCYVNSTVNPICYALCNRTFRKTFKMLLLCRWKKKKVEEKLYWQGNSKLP
CPY2D6, sequence (P10635 whole entry): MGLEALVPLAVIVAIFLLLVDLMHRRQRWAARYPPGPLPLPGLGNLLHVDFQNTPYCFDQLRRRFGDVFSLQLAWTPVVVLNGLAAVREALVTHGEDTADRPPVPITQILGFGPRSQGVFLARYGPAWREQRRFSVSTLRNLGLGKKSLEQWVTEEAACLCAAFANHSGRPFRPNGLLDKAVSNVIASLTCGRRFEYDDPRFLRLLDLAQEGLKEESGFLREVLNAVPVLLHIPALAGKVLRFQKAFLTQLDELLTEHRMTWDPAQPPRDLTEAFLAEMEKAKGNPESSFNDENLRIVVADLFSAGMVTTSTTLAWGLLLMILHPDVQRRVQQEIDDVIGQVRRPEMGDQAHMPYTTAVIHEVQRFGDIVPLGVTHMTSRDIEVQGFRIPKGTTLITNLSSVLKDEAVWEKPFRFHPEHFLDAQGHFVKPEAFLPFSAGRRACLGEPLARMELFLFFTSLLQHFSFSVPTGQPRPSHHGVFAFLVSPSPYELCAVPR
CYP2C19, sequence (P33261 whole entry): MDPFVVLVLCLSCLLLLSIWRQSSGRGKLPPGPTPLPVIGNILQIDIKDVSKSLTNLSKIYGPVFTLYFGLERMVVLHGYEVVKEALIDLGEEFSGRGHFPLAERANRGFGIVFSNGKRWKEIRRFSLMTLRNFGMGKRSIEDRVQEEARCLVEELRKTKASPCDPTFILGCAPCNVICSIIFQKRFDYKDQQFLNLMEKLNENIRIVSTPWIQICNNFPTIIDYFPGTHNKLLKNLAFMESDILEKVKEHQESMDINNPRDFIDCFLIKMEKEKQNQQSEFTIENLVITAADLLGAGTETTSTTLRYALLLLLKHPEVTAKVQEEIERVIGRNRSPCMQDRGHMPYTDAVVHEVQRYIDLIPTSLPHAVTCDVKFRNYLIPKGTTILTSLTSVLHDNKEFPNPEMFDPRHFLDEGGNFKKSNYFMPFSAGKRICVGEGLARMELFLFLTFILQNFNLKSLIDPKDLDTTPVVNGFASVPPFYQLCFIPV
CYP1A2, sequence (P05177 whole entry): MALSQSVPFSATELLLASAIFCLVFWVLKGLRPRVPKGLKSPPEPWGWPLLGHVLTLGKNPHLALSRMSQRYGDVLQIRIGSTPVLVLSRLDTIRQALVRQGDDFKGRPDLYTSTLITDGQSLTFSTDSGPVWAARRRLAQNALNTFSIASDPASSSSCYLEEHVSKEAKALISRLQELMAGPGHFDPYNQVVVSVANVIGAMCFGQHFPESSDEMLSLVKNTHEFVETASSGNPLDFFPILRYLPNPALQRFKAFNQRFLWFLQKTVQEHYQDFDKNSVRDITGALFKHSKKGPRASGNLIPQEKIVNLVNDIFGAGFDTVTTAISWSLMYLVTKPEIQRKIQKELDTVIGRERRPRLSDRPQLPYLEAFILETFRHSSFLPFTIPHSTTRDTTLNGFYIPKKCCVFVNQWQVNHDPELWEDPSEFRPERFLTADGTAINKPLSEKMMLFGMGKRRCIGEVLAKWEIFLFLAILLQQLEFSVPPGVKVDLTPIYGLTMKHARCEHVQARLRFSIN
Method for physchem: as §3

CC[C@@H]1SC2(CCN(C)CC2)NC1=O [AF267B, (S)-2-ethyl-8-methyl-1-thia-4,8-diaza-spiro[4.5]decan-3-one]
inhibition at 0.0001 µM (ApoE; Rattus norvegicus, Astrocyte, at 0.1 nM, read-out: Inhibition of ApoE production): 60 to 80%
ApoE production (ApoE; up to 96 hrs): inhibits the production of ApoE
time detected in the brain after dosing [1]: 2 to 240 min
Active concentration range, decrease of Aβ [2]: active in the μM range
Potency in decreasing Aβ levels relative to AF150(S) [2]: at least 5 fold
Reduction of release of Aβ-like fragments (3–4 Kda) [2]: approximately 50%
γ secretase activity reduction [2]: 50%
p3 fragment ([2]; 1 mM): complete loss
Decrease of Aβ together with CDX ([2]; with CDX (5 mM), to undetectable Aβ levels): synergistic effect
Dose at which effects are seen [3]: > 40 mg/kg
% of the compound found in the brain (Cmax brain/Cmax plasma) ([4]; female): 16%
% of the compound found in the brain (Cmax brain/Cmax plasma) ([4]; male): 25%
% inhibition [5]: 52.5%
Ki (muscarinic receptor): 1.62 ± 0.34 µM
Protection of hippocampal neurons from Aβ1–40 (rat hippocampal neurons; 10 μM, Aβ1–40 (5 μM)): > 90%
Aβ1–40-induced apotosis (rat hippocampal neurons; 10 μM, Aβ1–40 (5 μm)): to the control level
Survival and morphology of hippocampal neurons, compound alone (rat hippocampal neurons; 0.5–50 μM): does not affect the survival and morphology
Neurites after Aβ1–40 (immunofluorescence) (rat hippocampal neurons; Aβ1–40 (5 μM)): protected the neurons
Reversal test (AF64A-injected rats; 1 mg/kg): tendency for improvement
Training, escape latency (AF64A-injected rats; 1 mg/kg): tendency for improvement
Reversal test (AF64A-injected rats; 3 mg/kg): tendency for impairment
Training performance (AF64A-injected rats; 3 mg/kg): tended to impair performance
Learning (training) (AF64A-injected rats; 0.3, 1, 3 mg/kg po): no significant effect on learning
Probe trial, spatial bias (escape latency) (AF64A-injected rats; all doses): complete spatial bias
pKa (physchem): 7.8
Reduction of intensity of the immunoreactivity (cholesterol-fed rabbits): approximately 50%
Reduction of number of neurons expressing Aβ immunoreactivity (cholesterol-fed rabbits): 25–30%
cyclin D1, increase vs. control (cyclin D1): 50%
Kp (in vivo; female, iv, 1 mg/kg): 1.32
Kp (in vivo; female, po, 2 mg/kg): 1.25
Kp (in vivo; male, iv, 1 mg/kg): 1.79
Kp (in vivo; male, po, 2 mg/kg): 2.43

CC[C@@H]1SC2(CCNCC2)NC1=O [AF292, (S)-2-Ethyl-1-thia-4,8-diaza-spiro[4.5]decan-3-one]
Inhibition of CYP2C19 (CYP2C19): did not induce significant inhibition
PI turnover vs. carbachol, M3 (M3 (human) [6]; human M3): No activity; also recorded: PI., AA: M3 mAChR: Not active as agonist
Kb (M3 (human) [6]; read-out: pKb, M3 antagonist (converted)): 0.66 µM
Binding, % (M3 (human) [7]): 55%
Binding, % (human M1): 55%
AA release, M3 mAChR, agonist activity (M3 mAChR): inactive as an agonist; also recorded: PI., AA: M3 mAChR: Not active as agonist
Inhibition of CPY2D6 (CPY2D6): did not induce significant inhibition
Inhibition of CYP1A2 (CYP1A2): did not induce significant inhibition
PI turnover, M5, agonist activity (M5 receptor): No activity; also recorded: PI, AA: M5 mAChR - no effect as agonist
Retention latency (trihexyphenidyl rats): 225.9 ± 36 s
